Tests used:
[1] = Gravimetric vapour sorption (GVS) analysis; format: physicochemical; settings: 25° C., mass change between 20% and 80% RH in first adsorption scan; mass change larger then 0.2% and smaller then 2%
Protocol: Gravimetric Vapour Sorption (GVS) Analysis
Measurements were performed on a multi sample instrument SPS-100n (Projekt Messtechnik, Ulm, Germany) operated in stepping mode at 25° C. The sample was allowed to equilibrate at 40% RH before starting a pre-defined humidity program (40-0-95-0-95-40% RH, steps of 5% ΔRH and with a maximal equilibration time of 24 hours per step were applied. About 20 to 30 mg of each sample was used. The hygroscopic classification is done according to the European Pharmacopeia Technical Guide (1999, page 86), e.g., slightly hygroscopic: increase in mass is less than 2% and equal to or greater than 0.2% mass/mass; hygroscopic: increase in mass is less than 15% and equal to or greater than 2% mass/mass. The mass change between 20% relative humidity and 80% relative humidity in the first adsorption scan is considered.

[2] = test system: primary cultured rat hepatocytes; experiment: In vitro cytotoxicity in primary cultured rat hepatocytes; format: cell-based; settings: for NoEC (no effect concentration) / LCC (lowest cytotoxic concentration): 24 h treatment, highest test concentration 300 μM; for NoEC (no effect concentration): morphology and LDH leakage; for LCC (lowest cytotoxic concentration): morphology grading ≥2 or ≥2-fold increase in LDH leakage
From the text: In Vitro Cytotoxicity in Primary Cultured Rat Hepatocytes
Adult male Wistar rats were narcotized with sodium pentobarbital and hepatocytes were isolated according to a standard procedure, i.e. by in situ perfusion of the liver with a collagenase solution. The viability of the purified hepatocytes, checked by the trypan blue dye exclusion method was greater than 85%. The isolated hepatocytes were resuspended in standard Williams Medium E, without phenol red, supplemented (WME supp.) with transferrin (100 μg/ml), triiodothyronine (10 μg/ml), gentamicin (50 μg/ml), hydrocortison hemisuccinate (13.36 μg/ml), glucagon (5 μg/ml), HEPES (10 mM), inosin (10 μg/ml), insulin (10 μg/ml), streptomycin (100 μg/ml) and penicillin (100 U/ml) and 10% fetal bovine serum (FBS). The cells were plated in collagen-coated 24-well plates at an initial density of 2×10^5 cells/well. After 4 h for attachment to the culture-plates, the medium was aspirated and replaced by fresh WME supp. without FBS containing the test compounds and incubated for 24 h at 37° C. in a […] and 5% CO2 atmosphere. For each experiment, i.e., with each batch of hepatocytes, treatments with the test compounds were done in quadriplicate. Quadriplicate controls (treatment with the vehicle only) were also present on each culture plate.
Stock solutions of the test compounds were prepared in DMSO a few hours before treatment start. Appropriate dilutions of these stock solutions were added to the culture media just prior to the treatment in order to give final concentrations of 0, 3, 10, 30, 100 and 300 μM. The final concentration of the vehicle DMSO was 1% (v/v).
The morphology of the hepatocyte monolayers was monitored by light microscopy after 24 hours of exposure to the test compounds. Treatment related effects are described according to the following grading: • 0 No morphological alterations observed upon treatment when compared to the control cultures • 1-3 Treatment resulting in any morphological changes, e.g. intracellular granulation, vacuolization or cell death. Depending on the severity, these changes were regarded as slight (1), moderate (2) or strong (3). • K Treatment resulting in 100% dead cells and/or the complete detachment of the monolayer yielding a clear cell-free dish.
After 24 h treatment of the hepatocyte cultures, aliquots of culture medium were carefully collected and used for the analysis of lactate dehydrogenase (LDH) activity by spectrophotometry using the LDH cytotoxicity detection kit from Clontech (cat No. 630117, Mountain View, Calif., USA). For each experiment, additional cultures were used for the determination of total intracellular LDH activity at treatment start. For this purpose, 4 wells of cell culture per experiment were washed with cold saline before treatment start, sonicated in fresh medium and the homogenate was analyzed for total LDH activity. Enzyme activities in the culture media were assessed and expressed as percentage of the total activity present in the cultured hepatocytes at the beginning of the treatments.
The lowest cytotoxic concentration (LCC) and the no effect concentration (NoEC) are given for each compound, based on cell morphology and LDH leakage after 24 h treatment. LCC is defined as the lowest concentration of the test compound leading to a clear effect on the cultured rat hepatocytes (morphology grading ≥2 or ≥2-fold increase in LDH leakage). […]

[3] = test system: eosinophils (PGD2-induced shape change); experiment: Eosinophil shape change assay with human plasma; format: cell-based; settings: 50% human plasma, PGD2 100 nM activation, read-out: Antagonistic activity IC50
Protocol: Eosinophil Shape Change Assay with Human Plasma After obtaining informed consent, blood samples were drawn by venipuncture according to the protocol approved by the ethics committee of Basel, Switzerland. Polymorphonuclear leukocytes (containing eosinophils, basophils and neutrophils) were isolated using the Polymorphprep™ method (Axis-Shield). In brief, anticoagulated whole blood was layered onto a Polymorphprep gradient (density 1.113 g/ml) and centrifuged at 500 g for 30 min. The polymorphonuclear cell fraction was harvested and depleted for erythrocytes by hypotonic saline lysis. […]
Immediately after fixation with paraformaldehyde, the samples were analyzed by FACSCanto flow cytometer (BD Biosciences) and target cells were identified by their forward-scatter (FSC) and side-scatter (SSC) characteristics. […] Shape change responses, indicative of eosinophil activation, were quantified as the percent of cells with an increased forward-scatter.

Structure (SMILES) | Hygroscopicity [1] | NoEC (no effect concentration) [2] [µM] | LCC (lowest cytotoxic concentration) [2] [µM] | properties in in-vitro cytotoxicity assay (in words) ([2]; summary statement) | IC50 [3] [nM]
CN(c1ncc(Cl)cn1)[C@H]1CCc2c(c3nc(F)ccc3n2CC(=O)O)C1 [COMPOUND in crystalline form 1, (S)-2-(8-((5-chloropyrimidin-2-yl)(methyl)amino)-2-fluoro-6,7,8,9-tetrahydro-5H-pyrido[3,2-b]indol-5-yl)acetic acid] | Slightly hygroscopic (mass change larger | – | – | – | –
CN(c1ncc(Cl)cn1)[C@H]1CCc2c(c3cc(F)ccc3n2CC(=O)O)C1 [example 9 from WO 2011/117798, reference compound] | – | 30 | 300 | – | –
CN(c1ncc(Cl)cn1)[C@H]1CCc2c(c3nc(F)ccc3n2CC(=O)O)C1 [COMPOUND, (S)-2-(8-((5-chloropyrimidin-2-yl)(methyl)amino)-2-fluoro-6,7,8,9-tetrahydro-5H-pyrido[3,2-b]indol-5-yl)acetic acid] | – | >300 | >300 | significantly improved properties | 3.1

— US10351560B2, “Crystalline forms” (IDORSIA PHARMACEUTICALS LTD, priority 2015, dated 2019)
